The test system of test [1] is T98G glioma cell line. The test can be described thus: MTS proliferation assay. It is filed as cell-based. To be noted: Homo sapiens, 48 h, read-out: IC50 values T98G cell line.
Test [2] addresses T1, immobilized ERRα ligand binding domain (Homo sapiens, UniProt P11474).
T1 sequence (P11474 193-421 limits assumed): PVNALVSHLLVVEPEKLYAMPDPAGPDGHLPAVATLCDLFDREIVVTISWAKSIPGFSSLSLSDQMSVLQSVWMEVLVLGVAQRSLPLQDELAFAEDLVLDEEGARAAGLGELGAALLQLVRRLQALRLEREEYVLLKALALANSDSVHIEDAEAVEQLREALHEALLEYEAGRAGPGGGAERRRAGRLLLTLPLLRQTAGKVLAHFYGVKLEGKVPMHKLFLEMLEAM
The test can be described thus: Retention on the ERRα column. As to conditions: data not shown.

In test [3] the test system is ERRα. To be noted: cited from earlier work.
In test [4] the target is ERRγ. As to conditions: cited from earlier work.
Test [5] deals with T2, immobilized ERRγ ligand binding domain (Homo sapiens, UniProt P62508).
T2 sequence (P62508 233-457 limits assumed): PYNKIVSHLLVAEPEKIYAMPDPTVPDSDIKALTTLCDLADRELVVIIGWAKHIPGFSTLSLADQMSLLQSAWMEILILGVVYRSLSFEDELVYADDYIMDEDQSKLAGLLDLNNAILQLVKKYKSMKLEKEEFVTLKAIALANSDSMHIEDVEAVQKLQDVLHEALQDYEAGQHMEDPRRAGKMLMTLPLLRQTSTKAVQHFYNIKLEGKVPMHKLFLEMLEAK
The test can be described thus: Non-linear chromatography.

The structures appear in SMILES notation.

The source of these data is publication PMC2932438 (Journal of pharmaceutical and biomedical analysis, 2010).

In the case of `CC/C(=C(\c1ccc(O)cc1)c1ccc(OCCN(C)C)cc1)c1ccccc1` [4-hydroxy tamoxifen], in test [1], the IC50 was determined as 14500 nM. In addition, the “specific retention on the ERRα column” value in test [2] was “not specifically retained”. Also, in test [3], the “affinity for the ERRα” value was “no affinity”. Further, the Ki in test [4] is 75 nM.
Compound `CC/C(=C(\c1ccc(O)cc1)c1ccc(OCCNC)cc1)c1ccccc1` [Endoxifen] came in with a Kd in test [5] of 43.2 nM. In addition, in test [1], the IC50 worked out at 3400 nM. For the same compound, the “specific retention on the ERRα column” value in test [2] is “not specifically retained”. The “affinity for the ERRα” value in test [3] is “no affinity”.
For `CC/C(=C(\c1ccccc1)c1ccc(OCCN(C)C)cc1)c1ccccc1` [Tamoxifen], the “affinity for the ERRα” value in test [3] was “no affinity”.
